Experimental findings from patent US10639299B2, “Calcium sensing receptors, ligands, compositions, and methods of use” (Georgia State University Research Foundation, Inc., priority 2016, dated 2020) are described below.

The target in this assay is T1, CaSR (Homo sapiens, UniProt P41180).
T1 sequence (P41180 20-1078): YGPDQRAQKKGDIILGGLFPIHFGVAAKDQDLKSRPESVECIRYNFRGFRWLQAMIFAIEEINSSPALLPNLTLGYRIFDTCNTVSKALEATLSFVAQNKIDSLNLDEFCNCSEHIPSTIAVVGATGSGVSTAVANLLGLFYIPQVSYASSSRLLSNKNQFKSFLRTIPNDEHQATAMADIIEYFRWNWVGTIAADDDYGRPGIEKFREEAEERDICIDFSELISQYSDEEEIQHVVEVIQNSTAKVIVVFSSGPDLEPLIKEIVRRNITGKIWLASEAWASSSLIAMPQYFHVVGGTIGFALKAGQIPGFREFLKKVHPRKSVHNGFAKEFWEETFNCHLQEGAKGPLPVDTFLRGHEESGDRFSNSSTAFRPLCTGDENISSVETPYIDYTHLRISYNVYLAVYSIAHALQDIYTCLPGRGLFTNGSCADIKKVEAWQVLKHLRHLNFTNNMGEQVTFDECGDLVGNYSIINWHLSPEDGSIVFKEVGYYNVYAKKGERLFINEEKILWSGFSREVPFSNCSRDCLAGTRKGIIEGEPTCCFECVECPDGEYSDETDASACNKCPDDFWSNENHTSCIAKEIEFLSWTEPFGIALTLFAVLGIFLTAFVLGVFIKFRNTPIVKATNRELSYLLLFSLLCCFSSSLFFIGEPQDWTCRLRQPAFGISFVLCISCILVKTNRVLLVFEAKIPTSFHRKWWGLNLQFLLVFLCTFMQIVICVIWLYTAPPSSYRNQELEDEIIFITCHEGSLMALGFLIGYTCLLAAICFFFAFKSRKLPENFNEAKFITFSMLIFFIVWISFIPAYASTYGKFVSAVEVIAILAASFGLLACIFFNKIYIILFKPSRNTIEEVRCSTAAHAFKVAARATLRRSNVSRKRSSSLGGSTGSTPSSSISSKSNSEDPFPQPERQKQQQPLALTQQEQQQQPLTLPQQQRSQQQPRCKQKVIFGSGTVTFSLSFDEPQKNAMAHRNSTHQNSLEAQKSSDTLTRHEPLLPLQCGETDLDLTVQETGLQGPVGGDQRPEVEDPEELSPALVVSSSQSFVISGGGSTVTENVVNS
The experiment in a line: [Ca^2+]i signaling (Fura-2) evoked by [Mg^2+]o/[Ca^2+]o in CaSR-expressing HEK293 cells (5001 cell population assay). In kind it is cell-based. Also on record: expressed in transfected cells. On the procedure: Measurement of intracellular free Ca^2+ was assessed as described by Huang, et al^33. Briefly, wild type CaSR, or its mutants, were transiently transfected into HEK293 cells grown on coverslips and cultured for 48 h. The cells were subsequently loaded for 15 min using 2 μM Fura-2 AM in 2 mL physiological saline buffer (10 mM HEPES, 140 mM NaCl, 5 mM KCl, 1.0 mM MgCl2 and pH 7.4). The coverslips were mounted in a bath chamber on the stage of a Leica DM6000 fluorescence microscope. The cells were alternately illuminated with 340 or 380 nm light, and the fluorescence at an emission wavelength 510 nm was recorded in real time as the [Ca^2+]o and/or [Mg^2+]o was increased in a stepwise manner in the presence or absence of 0.25 mM TNCA in buffer (10 mM HEPES, 155 mM NaCl, 5 mM KCl, 2 mM NaH2PO4, 0.5 mM MgCl2 and pH 7.4). The ratio of the emitted fluorescence intensities resulting from excitation at both wavelengths was utilized as a surrogate for changes in [Ca^2+]i and was further plotted and analyzed as a function of [Ca^2+]o. All experiments were performed at room temperature. The signals from 20 to 100 single cells were recorded for each measurement. Oscillations were identified as three successive fluctuations in [Ca^2+]i after the initial peak. Determination of the Effect of TNCA on Mg^2+-Evoked [Ca^2+]i Signaling by Stimulation of CaSR in Cell Populations.
Changes in the intracellular Ca^2+ concentration [Ca^2+ ]i elicited by extracellular Mg^2+ ([Mg^2+]o) in a population of cells were measured by fluorimetry as described previously^33. A cell line stably expressing CaSR (designated the “5001 cell line”) was seeded on 13.5×20-mm coverslips and cultured in DMEM. After reaching 95% confluence, cells were washed three times using loading buffer (20 mM HEPES [pH 7.4], 125 mM NaCl, 5 mM KCl, 1.25 mM CaCl2, 1 mM MgCl2, 1 mM NaH2PO4, 1% glucose, and 1% BSA) and subsequently incubated with 4 μM Fura-2 and 4 μM pluronic F127 for 20 minutes at 37° C. to enable sufficient dye loading in the same buffer. After removing the excess Fura-2, coverslips with cells were diagonally positioned in a quartz cuvette filled with 3 ml of experimental buffer (125 mM NaCl, 5 mM KCl, 0.5 mM CaCl2, 0.5 mM MgCl2, 1% glucose, and 1% BSA). Measurements of Fura-2 fluorescence at 510 nm when excited at 340 or 380 nm were performed on a QM1 fluorescence spectrophotometer (PTI). The emission ratio of 340/380 was calculated and used to reflect the changes in [Ca^2+]i when different concentrations of [Mg^2+]o were applied to the cells.
To examine the co-activation of CaSR by TNCA and [Mg^2+]o or [Ca^2+]o, different concentrations of TNCA were placed in the experimental buffer with a fixed concentration of [Ca^2+]o and varying concentrations of [Mg^2+]o, or vice versa, as described in the results section. The effects of other ligands were analyzed by comparing the changes in [Ca^2+ ]i produced by [Mg^2+]o alone or by co-application of Mg^2+ with other ligands. The EC50 of [Mg^2+]o obtained during incubation with various concentrations of TNCA is compared with that observed in the presence of [Mg^2+]o alone. The EC50 changes were plotted as a function of TNCA concentration and the curve was fit to the Hill equation. The activation of CaSR by the TNCA, functioning as a co-agonist with [Mg^2+]o, is indicated by the increasingly leftward-shifted EC50 for [Mg^2+]o as the concentration of TNCA increases (FIG. 6).

For the molecule `N[C@@H](Cc1ccccc1)C(=O)O` [Phe, phenylalanine], the “effect on [Mg^2+]o activation of CaSR” value is listed as “further potentiated”.
